Data set [1] deals with Transient receptor potential cation channel subfamily V member 1 (Homo sapiens) (UniProt Q8NER1). The data set is described as follows: Agonist activity at TRPV1 (unknown origin) expressed in HEK-293 cells assessed as induction of calcium influx at 50 uM incubated for 48 hrs by Fura2-AM dye based calcium imaging assay relative to capsaicin. Format: cell-based.
The target is the same in data set [2]. The data set is described as follows: Agonist activity at TRPV1 (unknown origin) expressed in HEK-293 cells assessed as induction of calcium influx at 50 uM incubated for 48 hrs by Fura2-AM dye based calcium imaging assay. It counts as cell-based.
The nature of data set [3]: Drug degradation in PBS assessed as hydrolysis of western conjugate region at 0.2 mM at 37 degC incubated up to 6 hrs by LC-MS analysis. Format: physicochemical. The settings on record: buffer, 200 µM; for Drug degradation: TDE = time-dependent effect.
The next data set has as its system PC-3. The data set can be described thus: Cytotoxicity in […] expressing human PC3 cells assessed as reduction in cell viability at 200 uM incubated for 24 to 72 hrs by Cell-titer blue assay. It counts as functional, cell-based. The settings on record: TDE = time-dependent effect.
Data set [4] addresses Transient receptor potential cation channel subfamily V member 1 (Homo sapiens) (UniProt Q8NER1). The data set is described as follows: Agonist activity at TRPV1 (unknown origin) expressed in HEK-293 cells assessed as induction of calcium influx at 5 uM incubated for 48 hrs by Fura2-AM dye based calcium imaging assay. Format: cell-based.
The target is the same in data set [5]. The data set can be described thus: Binding affinity to TRPV1 in human U251 cells assessed as compound internalization by measuring compound localization in intracellular compartment at 20 uM incubated for 24 hrs by azide-488 fluorophore based in situ click reaction assay and confocal microscopy. Format: cell-based.

SMILES strings stand for the structures. Activity calls are given as the source filed them. No cut-off for these calls is given here.

Transient receptor potential cation channel subfamily V member 1 (Homo sapiens), sequence (Q8NER1 whole entry): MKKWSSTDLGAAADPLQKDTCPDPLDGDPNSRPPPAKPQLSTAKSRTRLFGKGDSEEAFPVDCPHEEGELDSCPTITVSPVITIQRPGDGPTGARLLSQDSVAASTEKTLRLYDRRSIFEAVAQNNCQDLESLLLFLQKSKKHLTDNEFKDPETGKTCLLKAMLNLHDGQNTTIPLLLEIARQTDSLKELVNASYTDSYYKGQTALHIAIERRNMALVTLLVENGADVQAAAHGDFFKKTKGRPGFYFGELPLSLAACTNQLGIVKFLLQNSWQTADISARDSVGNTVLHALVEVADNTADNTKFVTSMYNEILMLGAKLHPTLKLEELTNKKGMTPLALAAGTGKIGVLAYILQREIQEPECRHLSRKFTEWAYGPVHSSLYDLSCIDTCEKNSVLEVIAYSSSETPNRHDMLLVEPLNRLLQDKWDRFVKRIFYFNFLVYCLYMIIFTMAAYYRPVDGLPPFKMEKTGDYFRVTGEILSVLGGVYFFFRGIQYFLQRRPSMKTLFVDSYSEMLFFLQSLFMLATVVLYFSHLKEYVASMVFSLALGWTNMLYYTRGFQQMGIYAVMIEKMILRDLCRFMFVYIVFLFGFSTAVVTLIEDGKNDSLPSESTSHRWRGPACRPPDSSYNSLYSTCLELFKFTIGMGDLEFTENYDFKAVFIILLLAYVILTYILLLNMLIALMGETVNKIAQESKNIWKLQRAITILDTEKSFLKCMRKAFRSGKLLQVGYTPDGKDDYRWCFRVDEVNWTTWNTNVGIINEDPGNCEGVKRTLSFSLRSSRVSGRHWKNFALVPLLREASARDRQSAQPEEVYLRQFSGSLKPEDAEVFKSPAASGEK

Regarding `COc1cc(CNC(=O)CCCCCCNC(=O)c2ncn3c(=O)n(C)nnc23)ccc1O`, the Activity is 40% in data set [1] and “Tde” in the data set with PC-3. For the same molecule, the result in data set [2] was Active. Also, in data set [3], the Drug degradation result is listed as “Tde”.
In the case of `COc1cc(CNC(=O)CCCCNC(=O)c2ncn3c(=O)n(C)nnc23)ccc1O`, the results for the Activity (in data set [1]; in the data set on PC-3) were 40% and “Tde”, respectively. Besides, the result in data set [2] was Active. The Drug degradation result in data set [3] was “Tde”.
`COc1cc(CNC(=O)CNC(=O)c2ncn3c(=O)n(C)nnc23)ccc1O`: the Activity in data set [1] was 40%; in the data set on PC-3, “Tde”. In data set [2], the result was Active. In addition, the Drug degradation result in data set [3] is on record as “Tde”.
As for `Cn1nnc2c(C(N)=O)ncn2c1=O`, the Activity result in the data set on PC-3 is “Tde”.
With `C#CCCCCCCCCC(=O)NCc1ccc(O)c(OC)c1`, the outcome in data set [4] and in data set [5] was Active.
For the molecule `COc1cc(CNC(=O)CCCC/C=C/C(C)C)ccc1O` [CAPSAICIN], in data set [3], the Stability result was “Stable”.
